Data as given in patent publication US10925876B2, “Methods for using triazolo-pyrazinyl soluble guanylate cyclase activators in fibrotic disorders” (Merck Sharp & Dohme Corp., priority 2016, dated 2021).

What follows are compounds tested against T1, sGC α1/β1 heterodimer (Homo sapiens, UniProt Q02108+Q02153) (assay: Cell-Based sGC Functional Assay (CASA Assay), cGMP generation in CHO-K1/sGC cells). Settings: maximum cGMP production of Compound A set to 100% activation, read-out: % Act. (percent activation relative to Compound A).
T1 construct: expressed in transfected cells
T1 sequence (Q02108 1-690): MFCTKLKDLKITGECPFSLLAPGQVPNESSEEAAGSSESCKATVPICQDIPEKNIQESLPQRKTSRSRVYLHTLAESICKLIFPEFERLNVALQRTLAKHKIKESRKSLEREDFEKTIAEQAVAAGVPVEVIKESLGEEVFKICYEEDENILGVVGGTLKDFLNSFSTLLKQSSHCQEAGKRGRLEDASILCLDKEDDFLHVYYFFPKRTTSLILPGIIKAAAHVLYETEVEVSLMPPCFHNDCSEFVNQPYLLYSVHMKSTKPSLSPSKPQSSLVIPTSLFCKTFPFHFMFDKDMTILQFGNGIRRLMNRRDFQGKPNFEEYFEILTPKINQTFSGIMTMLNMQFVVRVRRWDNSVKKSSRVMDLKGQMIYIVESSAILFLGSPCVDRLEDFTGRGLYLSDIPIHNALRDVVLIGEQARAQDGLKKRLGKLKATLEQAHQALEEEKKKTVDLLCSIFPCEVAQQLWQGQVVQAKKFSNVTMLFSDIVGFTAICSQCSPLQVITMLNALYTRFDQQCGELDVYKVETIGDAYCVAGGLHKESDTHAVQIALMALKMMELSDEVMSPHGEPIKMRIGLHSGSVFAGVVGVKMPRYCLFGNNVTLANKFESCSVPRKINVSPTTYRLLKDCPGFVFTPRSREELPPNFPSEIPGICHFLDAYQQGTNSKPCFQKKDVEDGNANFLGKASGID
T1 sequence (Q02153 1-619): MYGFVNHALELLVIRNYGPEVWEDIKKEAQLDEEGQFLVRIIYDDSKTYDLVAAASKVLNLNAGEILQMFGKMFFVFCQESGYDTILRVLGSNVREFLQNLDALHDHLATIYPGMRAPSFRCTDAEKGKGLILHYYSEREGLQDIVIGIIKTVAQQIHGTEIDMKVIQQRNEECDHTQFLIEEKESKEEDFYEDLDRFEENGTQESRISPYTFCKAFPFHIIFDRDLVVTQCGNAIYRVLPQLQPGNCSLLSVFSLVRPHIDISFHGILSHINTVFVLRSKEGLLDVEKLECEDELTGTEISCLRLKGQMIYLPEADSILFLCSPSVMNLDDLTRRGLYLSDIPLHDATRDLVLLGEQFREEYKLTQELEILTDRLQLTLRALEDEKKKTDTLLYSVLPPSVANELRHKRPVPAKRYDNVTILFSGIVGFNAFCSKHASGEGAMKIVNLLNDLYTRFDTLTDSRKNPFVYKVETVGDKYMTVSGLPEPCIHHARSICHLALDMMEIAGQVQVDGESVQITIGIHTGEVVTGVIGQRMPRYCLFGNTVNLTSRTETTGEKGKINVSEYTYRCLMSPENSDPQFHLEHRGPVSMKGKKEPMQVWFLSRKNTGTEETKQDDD
From the text: sGC is a heme-containing enzyme that converts GTP to secondary messenger cGMP. Increases in cGMP levels affect several physiological processes including vasorelaxation through multiple downstream pathways. […] Heme-dependent activators (HDAs) preferentially activate sGC containing a ferrous heme group. To determine the effect of sGC activators on enzyme activity, the CASA assay was developed to monitor the generation of cGMP in a cell line that stably expresses the heterodimeric sGC protein.
A CHO-K1 cell line stably expressing the sGC α1/β1 heterodimer was generated using a standard transfection protocol. CHO-K1 cells were transfected with plasmids pIREShyghsGCα1 and pIRESneo-hsGCβ1 simultaneously using FUGENE reagent. Clones that stably express both subunits were selected with hygromycin and neomycin for ˜2 weeks. Clone #7 was chosen for the assay and was designated CHO-K1/sGC. CHO-K1/sGC cells were maintained in F-K12 medium containing 10% heat-inactivated Fetal Bovine Serum (FBS), 100 μg/mL penicillin/streptomycin, 0.5 mg/mL hygromycin and 0.25 mg/mL G418. The cells were then cryopreserved in LN2. On the day of the assay, cells thawed and resuspended in EBSS Assay Buffer (Sigma, E3024) supplemented with 5 mM MgCl2, 10 mM HEPES (4-(2-hydroxyethyl)piperazine-1-ethanesulfonic acid) and 0.05% BSA (bovine serum albumin) (EAB) and cell density was then adjusted to 4×10^5/mL with EAB. IBMX (3-isobutyl-1-methylxanthin, 0.5 mM) was added to inhibit degradation of cGMP. Compounds were diluted from DMSO stock solutions and added to the assay at a final DMSO concentration of 2.5%. Cells were incubated with compounds in the presence and absence of 1 μM of Diethylenetriamine/nitric oxide adduct (DETA-NO; Sigma, 17018) for 1 hr at 37° C. At the end of the incubation period, the reaction was terminated and the cells were lysed with the detection reagents from Cisbio Kits. The level of intracellular cGMP was determined using an HTRF-based assay kit (CisBio, 62GM2PEC), which detects the displacement of a fluorescence labeled cGMP from its specific antibody. The cGMP produced by test compounds was directly compared to the maximum cGMP production (this value was set to equal 100% activation.) of the published sGC-HDA Compound A:
[drawing 298] (Example 1 in WO 2010/065275, published Jun. 10, 2010). The test compounds' activities were then expressed as a percentage of Compound A, the standard in every experiment. This percent activation was calculated either in the presence or absence of DETA-NO which was then plotted. IP and maximum fold induction was derived using ADA analysis software for 4P fit.

Emax [%]	SMILES
163	C[C@@]1(c2ccc(F)cc2)C(=O)Nc2nc(-c3cn4ncnc4c(CCCC(F)(F)F)n3)nc(N)c21 [Example 23A, (S)-4-amino-5-(4-fluorophenyl)-5-methyl-2-(8-(4,4,4-trifluorobutyl)-[1,2,4]triazolo[1,5-a]pyrazin-6-yl)-5,7-dihydro-6H-pyrrolo[2,3-d]pyrimidin-6-one]
133	CC1(c2ccc(C(F)(F)F)cc2)C(=O)Nc2nc(-c3cn4ncnc4c(CCCC(F)(F)F)n3)nc(N)c21 (centres unmarked) [Example 24B, 4-amino-5-methyl-2-(8-(4,4,4-trifluorobutyl)-[1,2,4]triazolo[1,5-a]pyrazin-6-yl)-5-(4-(trifluoromethyl)phenyl)-5H-pyrrolo[2,3-d]pyrimidin-6(7H)-one]
162	CC1(c2ccc(Cl)cn2)C(=O)Nc2nc(-c3cn4ncnc4c(CCCC(F)(F)F)n3)nc(N)c21 (centres unmarked) [Example 26A, 4-amino-5-(5-chloropyridin-2-yl)-5-methyl-2-(8-(4,4,4-trifluorobutyl)-[1,2,4]triazolo[1,5-a]pyrazin-6-yl)-5H-pyrrolo[2,3-d]pyrimidin-6(7H)-one]
178	Nc1nc(-c2cn3ncnc3c(CCCC(F)(F)F)n2)nc2c1C(c1ccc(Cl)cn1)(C1CC1)C(=O)N2 (centres unmarked) [Example 27A, 4-amino-5-(5-chloropyridin-2-yl)-5-cyclopropyl-2-(8-(4,4,4-trifluorobutyl)-[1,2,4]triazolo[1,5-a]pyrazin-6-yl)-5H-pyrrolo[2,3-d]pyrimidin-6(7H)-one]
171	CC1(c2ccc(Cl)c(F)c2)C(=O)Nc2nc(-c3cn4ncnc4c(CCCC(F)(F)F)n3)nc(N)c21 (centres unmarked) [Example 28B, 4-amino-5-(4-chloro-3-fluorophenyl)-5-methyl-2-(8-(4,4,4-trifluorobutyl)-[1,2,4]triazolo[1,5-a]pyrazin-6-yl)-5H-pyrrolo[2,3-d]pyrimidin-6(7H)-one]
101	CC1(c2ccc(Cl)cc2)C(=O)Nc2nc(-c3cn4ncnc4c(CCCC(F)(F)F)n3)nc(N)c21 (centres unmarked) [Example 29A, 4-amino-5-(4-chlorophenyl)-5-methyl-2-(8-(4,4,4-trifluorobutyl)-[1,2,4]triazolo[1,5-a]pyrazin-6-yl)-5H-pyrrolo[2,3-d]pyrimidin-6(7H)-one]
117	Nc1nc(-c2cn3ncnc3c(CCCC(F)(F)F)n2)nc2c1C(c1ccc(F)cc1)(C1CC1)C(=O)N2 (centres unmarked) [Example 30B, 4-amino-5-cyclopropyl-5-(4-fluorophenyl)-2-(8-(4,4,4-trifluorobutyl)-[1,2,4]triazolo[1,5-a]pyrazin-6-yl)-5H-pyrrolo[2,3-d]pyrimidin-6(7H)-one]
104	Nc1nc(-c2cn3ncnc3c(CCCC(F)(F)F)n2)nc2c1C(c1ccc(Cl)cc1)(C1CC1)C(=O)N2 (centres unmarked) [Example 31B, 4-amino-5-(4-chlorophenyl)-5-cyclopropyl-2-(8-(4,4,4-trifluorobutyl)-[1,2,4]triazolo[1,5-a]pyrazin-6-yl)-5H-pyrrolo[2,3-d]pyrimidin-6(7H)-one]
144	Nc1nc(-c2cn3ncnc3c(CCCC(F)(F)F)n2)nc2c1C(c1ccc(F)c(F)c1)(C1CC1)C(=O)N2 (centres unmarked) [Example 32A, 4-amino-5-cyclopropyl-5-(3,4-difluorophenyl)-2-(8-(4,4,4-trifluorobutyl)-[1,2,4]triazolo[1,5-a]pyrazin-6-yl)-5H-pyrrolo[2,3-d]pyrimidin-6(7H)-one]
164	Nc1nc(-c2cn3ncnc3c(CCCC(F)(F)F)n2)nc2c1C(c1ccc(C(F)(F)F)cc1)(C1CC1)C(=O)N2 (centres unmarked) [Example 35A, 4-amino-5-cyclopropyl-2-(8-(4,4,4-trifluorobutyl)-[1,2,4]triazolo[1,5-a]pyrazin-6-yl)-5-(4-(trifluoromethyl)phenyl)-5H-pyrrolo[2,3-d]pyrimidin-6(7H)-one]
112	CC1(c2ccccc2)C(=O)Nc2nc(-c3cn4ncnc4c(CCCC(F)(F)F)n3)nc(N)c21 (centres unmarked) [Example 37B, 4-amino-5-methyl-5-phenyl-2-(8-(4,4,4-trifluorobutyl)-[1,2,4]triazolo[1,5-a]pyrazin-6-yl)-5H-pyrrolo[2,3-d]pyrimidin-6(7H)-one]
120	CC1(c2ccc(F)c(F)c2)C(=O)Nc2nc(-c3cn4ncnc4c(CCCC(F)(F)F)n3)nc(N)c21 (centres unmarked) [Example 38B, 4-amino-5-(3,4-difluorophenyl)-5-methyl-2-(8-(4,4,4-trifluorobutyl)-[1,2,4]triazolo[1,5-a]pyrazin-6-yl)-5H-pyrrolo[2,3-d]pyrimidin-6(7H)-one]
130	COc1ccc(C2(C)C(=O)Nc3nc(-c4cn5ncnc5c(CCCC(F)(F)F)n4)nc(N)c32)nc1 (centres unmarked) [Example 40A, 4-amino-5-(5-methoxypyridin-2-yl)-5-methyl-2-(8-(4,4,4-trifluorobutyl)-[1,2,4]triazolo[1,5-a]pyrazin-6-yl)-5H-pyrrolo[2,3-d]pyrimidin-6(7H)-one]
82	CC1(c2ccc(F)c(Cl)c2)C(=O)Nc2nc(-c3cn4ncnc4c(CCCC(F)(F)F)n3)nc(N)c21 (centres unmarked) [Example 42B, 4-amino-5-(3-chloro-4-fluorophenyl)-5-methyl-2-(8-(4,4,4-trifluorobutyl)-[1,2,4]triazolo[1,5-a]pyrazin-6-yl)-5H-pyrrolo[2,3-d]pyrimidin-6(7H)-one]
69	CC1(c2ccc(C(F)F)cn2)C(=O)Nc2nc(-c3cn4ncnc4c(CCCC(F)(F)F)n3)nc(N)c21 (centres unmarked) [Example 43B, 4-amino-5-(5-(difluoromethyl)pyridin-2-yl)-5-methyl-2-(8-(4,4,4-trifluorobutyl)-[1,2,4]triazolo[1,5-a]pyrazin-6-yl)-5H-pyrrolo[2,3-d]pyrimidin-6(7H)-one]
67	Cc1ccc(C2(C)C(=O)Nc3nc(-c4cn5ncnc5c(CCCC(F)(F)F)n4)nc(N)c32)nc1 (centres unmarked) [Example 46B, 4-amino-5-methyl-5-(5-methylpyridin-2-yl)-2-(8-(4,4,4-trifluorobutyl)-[1,2,4]triazolo[1,5-a]pyrazin-6-yl)-5H-pyrrolo[2,3-d]pyrimidin-6(7H)-one]
85	CC1(c2ccc(C#N)cn2)C(=O)Nc2nc(-c3cn4ncnc4c(CCCC(F)(F)F)n3)nc(N)c21 (centres unmarked) [Example 48A, 6-(4-amino-5-methyl-6-oxo-2-(8-(4,4,4-trifluorobutyl)-[1,2,4]triazolo[1,5-a]pyrazin-6-yl)-6,7-dihydro-5H-pyrrolo[2,3-d]pyrimidin-5-yl)nicotinonitrile]
